Laboratory results published in US10017507B2, “Diaza-benzofluoranthrene compounds” (HARBIN PHARMACEUTICAL GROUP CO., LTD. GENERAL …, priority 2015, dated 2018).

target: T1, PDE1A (Homo sapiens, UniProt P54750); assay: In vitro detection of phosphodiesterase (PDE): PDE1A enzyme activity by fluorescence polarization immunoassay; type: biochemical; conditions: human-derived enzyme, cAMP or cGMP substrate; read-out: IC50s for PDE1
T1 construct: purchased SignalChem
Experimental: Test 1: In Vitro Detection of Phosphodiesterase (PDE)
the enzyme activity of PDE1A was determined by detecting the production of AMP/GMP by fluorescence polarization immunoassay, wherein AlexaFluor 633 labeled AMP/GMP was used to replace AMP/GMP to bind with the antibody.
Reaction buffer: 10 mM Tris-HCl, pH 7.5, 5 mM magnesium chloride, 0.01% Brij 35, 1 mM DTT and 1% DMSO;
Enzyme substrate: […] cAMP or cGMP (Ca^2+-calmodulin acts as a cofactor of PDE1A)
Detection reagent: Transcreener® AMP2/GMP2 antibody; AMP2/GMP2 AlexaFluor 633 tracer.
Experimental Procedure and Method:
1. Human-derived enzyme (commercially available from SignalChem) to be tested and substrate were diluted with freshly prepared reaction buffer;
2. The enzyme solution (with a concentration of 3 pM) was added to the holes of the microplates;
3. A series of solutions of the compounds in 100% DMSO (with the desired concentrations) were added to the holes containing the enzyme solution by Echo550, and then the microplates were incubated for 10 minutes at room temperature;
4. The substrate solution was added to the holes containing the enzyme and compounds to start the reaction;
5. The microplates were incubated for 1 hour under room temperature and vibration;
6. The detection mixture (tracer and antibody in stop buffer) was added to stop the enzyme reaction, and the microplates were incubated for 90 minutes under vibration;
7. The equipment EnVision (PerkinElmer), Cy5 FP Ex FP 620, Em S-pol 688/P-pol 688, FP mirror D658fp/D688 was used to detect the reaction mixture, and Ex/Em 620/688 was used to detect the fluorescence polarization.
In the Excel table, the enzyme activity corresponding to the FP signal was found on the AMP/GMP standard curve by reference to the DMSO negative control, and then was converted to product concentration (nM). GraphPad Prism was used to analyze and calculate the IC50 values.

For CC[C@@]12C=C(c3nc4c(o3)CCCC4)n3c4c(c5ccccc53)CCN(CCC1)[C@H]42 [Example 55, 2-((4^1S,13aS)-13a-ethyl-2,3,4^1,5,6,13a-hexahydro-1H-indolo[3,2,1-de]pyrido[3,2,1-ij][1,5]naphthyridin-12-yl)-4,5,6,7-tetrahydrobenzo[d]oxazole], which IC50 is on record?
The IC50 was at most 1000 nM.

How did the IC50 turn out when CCc1nc(C2=C[C@]3(CC)CCCN4CCc5c(n2c2ccccc52)[C@@H]43)oc1C [Example 56, 4-ethyl-2-((4^1S,13aS)-13a-ethyl-2,3,4^1,5,6,13a-hexahydro-1H-indolo[3,2,1-de]pyrido[3,2,1-ij][1,5]naphthyridin-12-yl)-5-methyloxazole] was run?
Its IC50 is at most 1000 nM.

For CC[C@@]12C=C(c3nc(C(C)C)c(C)o3)n3c4c(c5ccccc53)CCN(CCC1)[C@H]42 [Example 57, 2-((4^1S,13aS)-13a-ethyl-2,3,4^1,5,6,13a-hexahydro-1H-indolo[3,2,1-de]pyrido[3,2,1-ij][1,5]naphthyridin-12-yl)-4-isopropyl-5-methyloxazole], which IC50 is on record?
The IC50 was at most 1000 nM.

For CC[C@@]12C=C(c3nc(C)c(C4CC4)o3)n3c4c(c5ccccc53)CCN(CCC1)[C@H]42 [Example 58, 5-cyclopropyl-2-((4^1S,13aS)-13a-ethyl-2,3,4^1,5,6,13a-hexahydro-1H-indolo[3,2,1-de]pyrido[3,2,1-ij][1,5]naphthyridin-12-yl)-4-methyloxazole], which IC50 is on record?
The IC50 was at most 1000 nM.

With CC[C@@]12C=C(c3nc(C)c(C(=O)OC)o3)n3c4c(c5ccccc53)CCN(CCC1)[C@H]42 [Example 59, Methyl-2-((4^1S,13aS)-13a-ethyl-2,3,4^1,5,6,13a-hexahydro-1H-indolo[3,2,1-de]pyrido[3,2,1-ij][1,5]naphthyridin-12-yl)-4-methyloxazole-5-carbonate] as the molecule, how does the IC50 read?
Its IC50 is at most 1000 nM.

Which IC50 does the source give for CC[C@@]12C=C(c3nc(C)c(C(C)(C)O)o3)n3c4c(c5ccccc53)CCN(CCC1)[C@H]42 [Example 60, 2-(2-((4^1S,13aS)-13a-ethyl-2,3,4^1,5,6,13a-hexahydro-1H-indolo[3,2,1-de]pyrido[3,2,1-ij][1,5]naphthyridin-12-yl)-4-methyloxazol-5-yl)propan-2-ol] here?
Its IC50 is 1000 to 20000 nM.

With CC[C@@]12C=C(c3nc(C)c(CO)o3)n3c4c(c5ccccc53)CCN(CCC1)[C@H]42 [Example 61, (2-((4^1S,13aS)-13a-ethyl-2,3,4^1,5,6,13a-hexahydro-1H-indolo[3,2,1-de]pyrido[3,2,1-ij][1,5]naphthyridin-12-yl)-4-methyloxazol-5-yl)methanol] as the molecule, how does the IC50 read?
Its IC50 is at most 1000 nM.

For CC[C@@]12C=C(c3nc(C)c(C(N)=O)o3)n3c4c(c5ccccc53)CCN(CCC1)[C@H]42 [Example 62, 2-((4^1S,13aS)-13a-ethyl-2,3,4^1,5,6,13a-hexahydro-1H-indolo[3,2,1-de]pyrido[3,2,1-ij][1,5]naphthyridin-12-yl)-4-methyloxazole-5-carboxamide], which IC50 is on record?
Its IC50 is 1000 to 20000 nM.

Which IC50 does the source give for CC[C@@]12C=C(c3nc(C)c(C#N)o3)n3c4c(c5ccccc53)CCN(CCC1)[C@H]42 [Example 63, 2-((4^1S,13aS)-13a-ethyl-2,3,4^1,5,6,13a-hexahydro-1H-indolo[3,2,1-de]pyrido[3,2,1-ij][1,5]naphthyridin-12-yl)-4-methyloxazole-5-carbonitrile] here?
The IC50 was at most 1000 nM.

For CC[C@@]12C=C(c3nc(C)c(C(=O)NC)o3)n3c4c(c5ccccc53)CCN(CCC1)[C@H]42 [Example 64, 2-((4^1S,13aS)-13a-ethyl-2,3,4^1,5,6,13a-hexahydro-1H-indolo[3,2,1-de]pyrido[3,2,1-ij][1,5]naphthyridin-12-yl)-N,4-dimethyloxazole-5-carboxamide], which IC50 is on record?
Its IC50 is at most 1000 nM.

With CC[C@@]12C=C(c3nc(C)c(C(=O)N(C)C)o3)n3c4c(c5ccccc53)CCN(CCC1)[C@H]42 [Example 65, 2-((4^1S,13aS)-13a-ethyl-2,3,4^1,5,6,13a-hexahydro-1H-indolo[3,2,1-de]pyrido[3,2,1-ij][1,5]naphthyridin-12-yl)-N,N,4-trimethyloxazole-5-carboxamide] as the molecule, how does the IC50 read?
The IC50 was at most 1000 nM.

For CC[C@@]12C=C(c3nc4c(o3)CCOC4)n3c4c(c5ccccc53)CCN(CCC1)[C@H]42 [Example 66, 2-((4^1S,13aS)-13a-ethyl-2,3,4^1,5,6,13a-hexahydro-1H-indolo[3,2,1-de]pyrido[3,2,1-ij][1,5]naphthyridin-12-yl)-6,7-dihydro-4H-pyrano[3,4-d]oxazole], which IC50 is on record?
The IC50 was at most 1000 nM.

Which IC50 does the source give for CC[C@@]12C=C(c3nc(C)c(N4CCOCC4)o3)n3c4c(c5ccccc53)CCN(CCC1)[C@H]42 [Example 67, 4-(2-((4^1S,13aS)-13a-ethyl-2,3,4^1,5,6,13a-hexahydro-1H-indolo[3,2,1-de]pyrido[3,2,1-ij][1,5]naphthyridin-12-yl)-4-methyloxazol-5-yl)morpholine] here?
The IC50 was at most 1000 nM.

With CC[C@@]12C=C(c3nc(C)c(C)o3)n3c4c(c5ccc(S(=O)(=O)NC)cc53)CCN(CCC1)[C@H]42 [Example 68, (4^1S,13aS)-12-(4,5-dimethyloxazol-2-yl)-13a-ethyl-N-methyl-2,3,4^1,5,6,13a-hexahydro-1H-indolo[3,2,1-de]pyrido[3,2,1-ij][1,5]naphthyridin-9-sulfonamide] as the molecule, how does the IC50 read?
Its IC50 is at most 1000 nM.

CC[C@@]12C=C(c3nc(C)c(C)o3)n3c4c(c5ccc(S(=O)(=O)N(C)C)cc53)CCN(CCC1)[C@H]42 [Example 69, (4^1S,13aS)-12-(4,5-dimethyloxazol-2-yl)-13a-ethyl-N,N-dimethyl-2,3,4^1,5,6,13a-hexahydro-1H-indolo[3,2,1-de]pyrido[3,2,1-ij][1,5]naphthyridin-9-sulfonamide] was tested. Which IC50 did it give?
Its IC50 is 1000 to 20000 nM.

How did the IC50 turn out when CC[C@@]12C=C(c3nc(C)c(C)o3)n3c4c(c5ccc(S(=O)(=O)NCCCOC)cc53)CCN(CCC1)[C@H]42 [Example 70, (4^1S,13aS)-12-(4,5-dimethyloxazol-2-yl)-13a-ethyl-N-(3-methoxylpropyl)-2,3,4^1,5,6,13a-hexahydro-1H-indolo[3,2,1-de]pyrido[3,2,1-ij][1,5]naphthyridin-9-sulfonamide] was run?
The IC50 was at most 1000 nM.

With CC[C@@]12C=C(c3nc(C)c(C)o3)n3c4c(c5cc(S(=O)(=O)N(C)C)ccc53)CCN(CCC1)[C@H]42 [Example 71, (4^1S,13aS)-12-(4,5-dimethyloxazol-2-yl)-13a-ethyl-N,N-dimethyl-2,3,4^1,5,6,13a-hexahydro-1H-indolo[3,2,1-de]pyrido[3,2,1-ij][1,5]naphthyridin-8-sulfonamide] as the molecule, how does the IC50 read?
Its IC50 is 1000 to 20000 nM.

How did the IC50 turn out when CC[C@@]12C=C(c3nc(C)c(C)o3)n3c4c(c5cc(S(=O)(=O)NCCCOC)ccc53)CCN(CCC1)[C@H]42 [Example 72, (4^1S,13aS)-12-(4,5-dimethyloxazol-2-yl)-13a-ethyl-N-(3-methoxylpropyl)-2,3,4^1,5,6,13a-hexahydro-1H-indolo[3,2,1-de]pyrido[3,2,1-ij][1,5]naphthyridin-9-sulfonamide] was run?
Its IC50 is 20000 to 100000 nM.

Which IC50 does the source give for CC[C@@]12C=C(c3nc(C)c(C)o3)n3c4c(c5c(S(=O)(=O)NC)cccc53)CCN(CCC1)[C@H]42 [Example 73, (4^1S,13aS)-12-(4,5-dimethyloxazol-2-yl)-13a-ethyl-N-methyl-2,3,4^1,5,6,13a-hexahydro-1H-indolo[3,2,1-de]pyrido[3,2,1-ij][1,5]naphthyridin-7-sulfonamide] here?
Its IC50 is 1000 to 20000 nM.

How did the IC50 turn out when CC[C@@]12C=C(c3nc(C)c(C)o3)n3c4c(c5c(S(=O)(=O)N(C)C)cccc53)CCN(CCC1)[C@H]42 [Example 74, (4^1S,13aS)-12-(4,5-dimethyloxazol-2-yl)-13a-ethyl-N,N-dimethyl-2,3,4^1,5,6,13a-hexahydro-1H-indolo[3,2,1-de]pyrido[3,2,1-ij][1,5]naphthyridin-7-sulfonamide] was run?
Its IC50 is 1000 to 20000 nM.

CC[C@@]12C=C(c3nc(C)c(C)o3)n3c4c(c5c(S(=O)(=O)NCCCOC)cccc53)CCN(CCC1)[C@H]42 [Example 75, (4^1S,13aS)-12-(4,5-dimethyloxazol-2-yl)-13a-ethyl-N-(3-methoxylpropyl)-2,3,4^1,5,6,13a-hexahydro-1H-indolo[3,2,1-de]pyrido[3,2,1-ij][1,5]naphthyridin-7-sulfonamide] was tested. Which IC50 did it give?
Its IC50 is 20000 to 100000 nM.

CC[C@@]12C=C(c3nc(C)no3)n3c4c(c5ccc(S(=O)(=O)NC)cc53)CCN(CCC1)[C@H]42 [Example 76, (4^1S,13aS)-13a-ethyl-N-methyl-12-(3-methyl-1,2,4-oxadiazol-5-yl)-2,3,4^1,5,6,13a-hexahydro-1H-indolo[3,2,1-de]pyrido[3,2,1-ij][1,5]naphthyridin-9-sulfonamide] was tested. Which IC50 did it give?
Its IC50 is 1000 to 20000 nM.

For CC[C@@]12C=C(c3nc(C)no3)n3c4c(c5ccc(S(=O)(=O)N(C)C)cc53)CCN(CCC1)[C@H]42 [Example 77, (4^1S,13aS)-13a-ethyl-N,N-dimethyl-12-(3-methyl-1,2,4-oxadiazol-5-yl)-2,3,4^1,5,6,13a-hexahydro-1H-indolo[3,2,1-de]pyrido[3,2,1-ij][1,5]naphthyridin-9-sulfonamide], which IC50 is on record?
Its IC50 is 20000 to 100000 nM.

Which IC50 does the source give for CC[C@@]12C=C(c3nc(C)no3)n3c4c(c5cc(S(=O)(=O)N(C)C)ccc53)CCN(CCC1)[C@H]42 [Example 80, (4^1S,13aS)-13a-ethyl-N,N-dimethyl-12-(3-methyl-1,2,4-oxadiazol-5-yl)-2,3,4^1,5,6,13a-hexahydro-1H-indolo[3,2,1-de]pyrido[3,2,1-ij][1,5]naphthyridin-8-sulfonamide] here?
The IC50 was 20000 to 100000 nM.
